Tests used:
[1] = molecular target: human EGFR (native sequence) (Homo sapiens, UniProt P00533); assay: Kinase inhibitory activity against human EGFR (native sequence); assay type: biochemical; settings: human EGFR native sequence; 10 μM ATP; read-out: IC50 for kinase inhibition, EGFR
In short: (§1)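 ATP was held at 10 μM while inhibition was measured across a 10-point series capped at 3 μM, single replicates.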

[2] = molecular target: EGFR L858R (Homo sapiens, UniProt P00533, L858R); assay: Kinase inhibitory activity against EGFR bearing the L858R mutation; assay type: biochemical; settings: EGFR L858R; 10 μM ATP; read-out: IC50 for kinase inhibition, EGFR L858R
Sequence of EGFR L858R (P00533 25-1210 L858R): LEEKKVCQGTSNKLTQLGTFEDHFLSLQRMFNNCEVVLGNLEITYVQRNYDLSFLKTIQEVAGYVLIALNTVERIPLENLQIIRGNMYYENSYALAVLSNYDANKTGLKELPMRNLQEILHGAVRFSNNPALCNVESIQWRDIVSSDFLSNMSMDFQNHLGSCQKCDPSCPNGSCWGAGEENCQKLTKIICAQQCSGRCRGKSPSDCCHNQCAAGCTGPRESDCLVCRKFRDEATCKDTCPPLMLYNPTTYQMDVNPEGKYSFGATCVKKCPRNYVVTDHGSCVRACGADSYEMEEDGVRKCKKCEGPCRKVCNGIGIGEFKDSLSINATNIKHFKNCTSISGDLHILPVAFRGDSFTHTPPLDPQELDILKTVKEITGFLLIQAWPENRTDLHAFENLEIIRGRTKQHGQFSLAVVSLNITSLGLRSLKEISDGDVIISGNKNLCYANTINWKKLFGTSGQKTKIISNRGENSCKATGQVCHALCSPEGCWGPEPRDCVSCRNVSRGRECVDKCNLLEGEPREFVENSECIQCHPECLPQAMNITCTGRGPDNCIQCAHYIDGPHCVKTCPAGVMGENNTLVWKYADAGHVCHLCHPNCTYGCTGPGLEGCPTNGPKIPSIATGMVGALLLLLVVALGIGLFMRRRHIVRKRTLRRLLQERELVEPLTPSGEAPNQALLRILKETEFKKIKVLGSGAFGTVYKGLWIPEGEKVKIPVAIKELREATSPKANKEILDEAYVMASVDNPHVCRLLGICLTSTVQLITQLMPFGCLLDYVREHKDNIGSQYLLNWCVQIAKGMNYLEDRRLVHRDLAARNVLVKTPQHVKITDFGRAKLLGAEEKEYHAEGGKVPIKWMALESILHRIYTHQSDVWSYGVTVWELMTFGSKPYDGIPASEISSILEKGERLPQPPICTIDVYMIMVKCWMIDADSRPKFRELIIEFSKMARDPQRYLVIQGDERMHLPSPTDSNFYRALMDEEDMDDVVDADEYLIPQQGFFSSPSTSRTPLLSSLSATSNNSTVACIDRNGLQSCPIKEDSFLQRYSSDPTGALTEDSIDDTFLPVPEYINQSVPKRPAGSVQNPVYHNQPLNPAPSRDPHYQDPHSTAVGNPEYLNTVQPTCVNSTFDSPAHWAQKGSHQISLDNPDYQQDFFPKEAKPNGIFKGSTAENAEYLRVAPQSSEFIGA
In short: as §1

[3] = molecular target: EGFR L858R/T790M (Homo sapiens, UniProt P00533, L858R/T790M); assay: Kinase inhibitory activity against EGFR bearing the L858R/T790M double mutation; assay type: biochemical; settings: EGFR L858R/T790M double mutation; 10 μM ATP; read-out: IC50 for kinase inhibition, EGFR L858R T790M
Sequence of EGFR L858R/T790M (P00533 25-1210 T790M/L858R): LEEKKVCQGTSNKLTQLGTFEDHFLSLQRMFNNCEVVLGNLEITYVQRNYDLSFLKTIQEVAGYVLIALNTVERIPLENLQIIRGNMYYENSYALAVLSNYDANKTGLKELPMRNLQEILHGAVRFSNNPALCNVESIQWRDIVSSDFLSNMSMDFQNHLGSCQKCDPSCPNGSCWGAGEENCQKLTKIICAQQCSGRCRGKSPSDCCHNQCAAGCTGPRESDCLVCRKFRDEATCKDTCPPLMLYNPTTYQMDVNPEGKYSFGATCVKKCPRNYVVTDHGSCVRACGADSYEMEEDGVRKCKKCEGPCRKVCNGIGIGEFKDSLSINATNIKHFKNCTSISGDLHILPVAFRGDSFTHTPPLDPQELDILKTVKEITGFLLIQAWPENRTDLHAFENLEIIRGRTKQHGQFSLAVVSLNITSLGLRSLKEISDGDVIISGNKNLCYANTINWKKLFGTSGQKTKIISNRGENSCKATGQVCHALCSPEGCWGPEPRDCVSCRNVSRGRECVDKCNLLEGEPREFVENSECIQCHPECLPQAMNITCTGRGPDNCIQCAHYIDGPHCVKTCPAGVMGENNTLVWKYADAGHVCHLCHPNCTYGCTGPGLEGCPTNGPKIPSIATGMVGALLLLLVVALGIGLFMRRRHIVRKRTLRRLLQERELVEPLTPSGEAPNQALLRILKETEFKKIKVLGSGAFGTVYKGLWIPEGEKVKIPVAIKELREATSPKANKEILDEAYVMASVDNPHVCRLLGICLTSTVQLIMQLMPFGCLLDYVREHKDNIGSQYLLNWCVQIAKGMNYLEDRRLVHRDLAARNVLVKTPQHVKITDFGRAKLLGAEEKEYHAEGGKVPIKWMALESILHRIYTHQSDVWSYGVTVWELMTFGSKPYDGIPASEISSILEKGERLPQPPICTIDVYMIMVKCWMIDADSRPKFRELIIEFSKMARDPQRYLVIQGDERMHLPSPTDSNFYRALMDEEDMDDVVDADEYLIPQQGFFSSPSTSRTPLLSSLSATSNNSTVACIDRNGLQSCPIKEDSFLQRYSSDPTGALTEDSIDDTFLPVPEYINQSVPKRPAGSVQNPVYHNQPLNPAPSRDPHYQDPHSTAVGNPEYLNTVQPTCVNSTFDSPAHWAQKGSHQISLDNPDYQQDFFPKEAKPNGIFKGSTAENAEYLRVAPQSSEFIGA
In short: as §1

[4] = molecular target: T1, BaF3 cells expressing the target EGFR mutations (Homo sapiens, UniProt P00533, T790M, cells depend on it, form not given); assay: Antiproliferative activity (MTT) against BaF3 cells expressing the target EGFR mutations; assay type: cell-based; settings: BAF3 EGFR DEL T790M PURO POOL cells, read-out: IC50, BAF3 EGFR DEL T790M PURO POOL
T1 construct: IC50, BAF3 EGFR DEL T790M PURO POOL; other: BAF3 EGFR DEL T790M PURO POOL cells, MTT; other: BAF3 EGFR DEL T790M PURO POOL cells; MTT
T1 sequence (P00533 with tags, fused parts or gaps DEL746-750/T790M, form open): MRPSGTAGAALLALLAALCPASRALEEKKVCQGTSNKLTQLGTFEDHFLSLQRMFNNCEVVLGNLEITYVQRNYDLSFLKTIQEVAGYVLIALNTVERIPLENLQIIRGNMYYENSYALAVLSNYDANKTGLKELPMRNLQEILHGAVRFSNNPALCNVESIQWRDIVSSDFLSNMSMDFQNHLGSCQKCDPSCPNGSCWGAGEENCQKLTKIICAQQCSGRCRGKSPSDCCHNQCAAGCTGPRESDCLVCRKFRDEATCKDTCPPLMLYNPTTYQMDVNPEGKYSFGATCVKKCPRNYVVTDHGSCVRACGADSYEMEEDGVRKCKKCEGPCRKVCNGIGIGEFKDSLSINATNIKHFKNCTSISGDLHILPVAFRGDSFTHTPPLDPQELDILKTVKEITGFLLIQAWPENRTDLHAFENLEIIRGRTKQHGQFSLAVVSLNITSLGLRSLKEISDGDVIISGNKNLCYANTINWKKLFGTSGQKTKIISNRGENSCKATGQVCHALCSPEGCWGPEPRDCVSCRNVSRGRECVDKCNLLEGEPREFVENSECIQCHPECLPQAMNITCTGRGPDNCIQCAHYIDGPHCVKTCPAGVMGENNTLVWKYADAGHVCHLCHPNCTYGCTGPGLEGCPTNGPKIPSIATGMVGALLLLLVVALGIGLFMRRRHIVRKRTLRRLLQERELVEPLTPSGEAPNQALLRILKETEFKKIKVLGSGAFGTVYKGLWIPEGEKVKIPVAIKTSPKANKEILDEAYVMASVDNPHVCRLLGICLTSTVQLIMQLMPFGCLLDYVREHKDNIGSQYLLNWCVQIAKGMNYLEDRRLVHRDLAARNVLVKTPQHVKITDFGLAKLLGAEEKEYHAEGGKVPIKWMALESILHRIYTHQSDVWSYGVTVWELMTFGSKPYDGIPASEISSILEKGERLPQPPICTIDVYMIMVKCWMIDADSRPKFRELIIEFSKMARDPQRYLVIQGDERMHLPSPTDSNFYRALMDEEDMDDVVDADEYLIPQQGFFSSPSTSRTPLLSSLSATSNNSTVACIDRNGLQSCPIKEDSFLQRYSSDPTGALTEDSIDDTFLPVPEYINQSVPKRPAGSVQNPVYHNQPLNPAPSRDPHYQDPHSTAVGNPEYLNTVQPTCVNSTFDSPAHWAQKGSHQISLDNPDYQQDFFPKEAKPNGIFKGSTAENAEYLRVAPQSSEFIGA
In short: (§2)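 Compounds were tested on BaF3 cells bearing target EGFR mutations and on control BaF3 cells with wildtype EGFR; viability was then determined by MTT.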

[5] = molecular target: T2, BaF3 cells expressing the target EGFR mutations (Homo sapiens, UniProt P00533, T790M/L858R, cells depend on it); assay: as above; assay type: cell-based; settings: BAF3 EGFR L858R-T790M PURO POOL cells, read-out: IC50, BAF3 EGFR L858R-T790M PURO POOL
T2 construct: IC50, BAF3 EGFR L858R-T790M PURO POOL; other: BAF3 EGFR L858R-T790M PURO POOL cells, MTT; IC50, BAF3 EGFR L858R-T790M PURO POOL; other: BAF3 EGFR L858R-T790M PURO POOL cells; MTT
T2 sequence (P00533 whole entry T790M/L858R): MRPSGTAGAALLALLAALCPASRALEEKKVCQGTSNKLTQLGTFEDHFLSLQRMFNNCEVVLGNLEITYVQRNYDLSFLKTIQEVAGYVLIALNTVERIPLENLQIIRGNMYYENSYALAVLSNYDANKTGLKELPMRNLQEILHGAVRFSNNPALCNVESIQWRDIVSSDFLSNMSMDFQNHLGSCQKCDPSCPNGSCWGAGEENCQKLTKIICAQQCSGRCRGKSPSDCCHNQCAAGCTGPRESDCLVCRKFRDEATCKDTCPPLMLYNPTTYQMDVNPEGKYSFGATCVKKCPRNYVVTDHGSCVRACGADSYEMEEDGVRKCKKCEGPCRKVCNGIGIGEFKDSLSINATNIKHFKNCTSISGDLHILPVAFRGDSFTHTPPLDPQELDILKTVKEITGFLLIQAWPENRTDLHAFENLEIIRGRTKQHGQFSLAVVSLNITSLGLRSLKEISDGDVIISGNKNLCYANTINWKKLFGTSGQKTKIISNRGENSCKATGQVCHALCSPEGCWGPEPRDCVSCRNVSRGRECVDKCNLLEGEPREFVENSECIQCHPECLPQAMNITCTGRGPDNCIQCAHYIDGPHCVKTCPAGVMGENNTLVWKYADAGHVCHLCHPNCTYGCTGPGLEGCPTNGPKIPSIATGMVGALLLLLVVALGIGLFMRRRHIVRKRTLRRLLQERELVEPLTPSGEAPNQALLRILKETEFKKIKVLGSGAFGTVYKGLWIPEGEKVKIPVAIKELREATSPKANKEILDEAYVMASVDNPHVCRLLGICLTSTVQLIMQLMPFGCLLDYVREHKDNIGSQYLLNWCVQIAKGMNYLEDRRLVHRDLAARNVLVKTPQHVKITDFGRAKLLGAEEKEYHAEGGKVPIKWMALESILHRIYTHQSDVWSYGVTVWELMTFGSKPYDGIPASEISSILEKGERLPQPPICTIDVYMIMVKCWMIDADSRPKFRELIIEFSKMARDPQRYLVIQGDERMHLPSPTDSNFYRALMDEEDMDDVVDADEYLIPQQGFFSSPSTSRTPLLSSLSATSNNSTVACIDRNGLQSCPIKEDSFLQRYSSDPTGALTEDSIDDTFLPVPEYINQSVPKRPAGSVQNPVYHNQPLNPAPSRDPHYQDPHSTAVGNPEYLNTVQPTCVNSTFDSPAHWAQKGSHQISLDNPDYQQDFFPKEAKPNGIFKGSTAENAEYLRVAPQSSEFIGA
In short: as §2

[6] = tested on: BaF3 cells expressing wildtype EGFR; assay: Antiproliferative activity (MTT) against control BaF3 cells expressing wildtype EGFR; assay type: cell-based; settings: Mus musculus, BAF3 PARENTAL cells (control)
In short: as §2

For `C=CC(=O)Nc1cc(Nc2ncc(Cl)c(Nc3ccccc3P(C)(C)=O)n2)c(OC)cc1N1CCC(N)C1` (stereo not drawn) [Example 57, N-(2-(3-aminopyrrolidin-1-yl)-5-((5-chloro-4-((2-(dimethylphosphoryl)phenyl)amino)pyrimidin-2-yl)amino)-4-methoxyphenyl)acrylamide], the IC50 [1] was under 50 nM, the IC50 [2] was under 50 nM and the IC50 [3] was under 50 nM. It also gave a GI50 [4] of at least 250 nM, a GI50 [5] of at least 250 nM and an IC50 [6] of at least 250 nM.
`COc1ccc(NC(=O)/C=C/C(=O)NCCN(C)C)cc1Nc1ncc(Cl)c(Nc2ccccc2P(C)(C)=O)n1` [Example 58, N1-(3-((5-chloro-4-((2-(dimethylphosphoryl)phenyl)amino)pyrimidin-2-yl)amino)-4-methoxyphenyl)-N4-(2-(dimethylamino)ethyl)fumaramide] gave an IC50 [1] of under 50 nM, an IC50 [2] of under 50 nM and an IC50 [3] of under 50 nM. The GI50 [4] was at least 250 nM, the GI50 [5] was at least 250 nM and the IC50 [6] was at least 250 nM.
In the case of `COc1ccc(NC(=O)/C=C/C(=O)N2CCN(C)CC2)cc1Nc1ncc(Cl)c(Nc2ccccc2P(C)(C)=O)n1` [Example 59, (E)—N-(3-((5-chloro-4-((2-(dimethylphosphoryl)phenyl)amino)pyrimidin-2-yl)amino)-4-methoxyphenyl)-4-(4-methylpiperazin-1-yl)-4-oxobut-2-enamide], the IC50 [1] is reported as under 50 nM, the IC50 [2] is reported as under 50 nM and the IC50 [3] is reported as under 50 nM. It also gave a GI50 [4] of 101 to 250 nM, a GI50 [5] of at least 250 nM and an IC50 [6] of at least 250 nM.
`COc1ccc(NC(=O)/C=C/C(=O)N(C)C)cc1Nc1ncc(Cl)c(Nc2ccccc2P(C)(C)=O)n1` [Example 60, N1-(3-((5-chloro-4-((2-(dimethylphosphoryl)phenyl)amino)pyrimidin-2-yl)amino)-4-methoxyphenyl)-N4,N4-dimethylfumaramide] showed an IC50 [1] of at least 250 nM, an IC50 [2] of 50 to 100 nM and an IC50 [3] of 101 to 250 nM. The GI50 [4] was at least 250 nM, the GI50 [5] was at least 250 nM and the IC50 [6] was at least 250 nM.
In the case of `COc1ccc(NC(=O)/C=C\C(=O)O)cc1Nc1ncc(Cl)c(Nc2ccccc2P(C)(C)=O)n1` [Example 61, (Z)-4-((3-((5-chloro-4-((2-(dimethylphosphoryl)phenyl)amino)pyrimidin-2-yl)amino)-4-methoxyphenyl)amino)-4-oxobut-2-enoic acid], the IC50 [1] is reported as at least 250 nM, the IC50 [2] is reported as at least 250 nM and the IC50 [3] is reported as 101 to 250 nM. For the same compound, the GI50 [4] was at least 250 nM, the GI50 [5] was at least 250 nM and the IC50 [6] was at least 250 nM.
For `COc1ccc(NC(=O)/C=C\C(=O)N(C)C)cc1Nc1ncc(Cl)c(Nc2ccccc2P(C)(C)=O)n1` [Example 62, N1-(3-((5-chloro-4-((2-(dimethylphosphoryl)phenyl)amino)pyrimidin-2-yl)amino)-4-methoxyphenyl)-N4,N4-dimethylmaleamide], the IC50 [1] was at least 250 nM, the IC50 [2] was at least 250 nM and the IC50 [3] was at least 250 nM. For the same compound, the GI50 [4] was at least 250 nM, the GI50 [5] was at least 250 nM and the IC50 [6] was at least 250 nM.
With `COc1ccc(NC(=O)/C=C\C(=O)N2CCN(C)CC2)cc1Nc1ncc(Cl)c(Nc2ccccc2P(C)(C)=O)n1` [Example 63, (Z)-N-(3-((5-chloro-4-((2-(dimethylphosphoryl)phenyl)amino)pyrimidin-2-yl)amino)-4-methoxyphenyl)-4-(4-methylpiperazin-1-yl)-4-oxobut-2-enamide] the IC50 [1] was at least 250 nM, the IC50 [2] was 101 to 250 nM and the IC50 [3] was at least 250 nM. For the same compound, the GI50 [4] was at least 250 nM, the GI50 [5] was at least 250 nM and the IC50 [6] was at least 250 nM.
With `COc1ccc(NC(=O)/C=C\C(=O)NCCN(C)C)cc1Nc1ncc(Cl)c(Nc2ccccc2P(C)(C)=O)n1` [Example 64, N1-(3-((5-chloro-4-((2-(dimethylphosphoryl)phenyl)amino)pyrimidin-2-yl)amino)-4-methoxyphenyl)-N4-(2-(dimethylamino)ethyl)maleamide] the IC50 [1] was at least 250 nM, the IC50 [2] was under 50 nM and the IC50 [3] was under 50 nM. It also gave a GI50 [4] of at least 250 nM, a GI50 [5] of at least 250 nM and an IC50 [6] of at least 250 nM.
Work on `C=CC(=O)Nc1cc(Nc2ncc(Cl)c(Nc3ccccc3P(C)(C)=O)n2)c(OC)cc1C#CC(C)(C)N` [Example 65, N-(2-(3-amino-3-methylbut-1-yn-1-yl)-5-((5-chloro-4-((2-(dimethylphosphoryl)phenyl)amino)pyrimidin-2-yl)amino)-4-methoxyphenyl)acrylamide] yielded an IC50 [1] of under 50 nM, an IC50 [2] of under 50 nM and an IC50 [3] of under 50 nM. The GI50 [4] was under 50 nM, the GI50 [5] was under 50 nM and the IC50 [6] was at least 250 nM.
Work on `C=CC(=O)Nc1cc(Nc2ncc(Cl)c(Nc3ccccc3P(C)(C)=O)n2)c(OC)cc1N(C)CCN(C)CCF` [Example 67, N-(5-((5-chloro-4-((2-(dimethylphosphoryl)phenyl)amino)pyrimidin-2-yl)amino)-2-((2-((2-fluoroethyl)(methyl)amino)ethyl)(methyl)amino)-4-methoxyphenyl)acrylamide] yielded an IC50 [1] of under 50 nM, an IC50 [2] of under 50 nM and an IC50 [3] of under 50 nM. For the same compound, the GI50 [4] was under 50 nM, the GI50 [5] was under 50 nM and the IC50 [6] was at least 250 nM.
In the case of `C=CC(=O)Nc1cc(Nc2ncc(Cl)c(Nc3ccccc3P(C)(C)=O)n2)c(OC)cc1N1CCC(N2CCC2)C1` (stereo not drawn) [Example 68, N-(2-(3-(azetidin-1-yl)pyrrolidin-1-yl)-5-((5-chloro-4-((2-(dimethylphosphoryl)phenyl)amino)pyrimidin-2-yl)amino)-4-methoxyphenyl)acrylamide], the IC50 [1] is reported as under 50 nM, the IC50 [2] is reported as under 50 nM and the IC50 [3] is reported as under 50 nM. It also gave a GI50 [4] of under 50 nM, a GI50 [5] of under 50 nM and an IC50 [6] of at least 250 nM.
Work on `C=CC(=O)Nc1cc(Nc2ncc(Cl)c(Nc3ccccc3P(C)(C)=O)n2)c(OC)cc1N1CCC(N2CCCCC2)CC1` [Example 69, N-(2-([1,4′-bipiperidin]-1-yl)-5-((5-chloro-4-((2-(dimethylphosphoryl)phenyl)amino)pyrimidin-2-yl)amino)-4-methoxyphenyl)acrylamide] yielded an IC50 [1] of under 50 nM, an IC50 [2] of under 50 nM and an IC50 [3] of under 50 nM. The GI50 [4] was under 50 nM, the GI50 [5] was under 50 nM and the IC50 [6] was at least 250 nM.
Work on `C=CC(=O)Nc1cc(Nc2ncc(Cl)c(Nc3ccccc3P(C)(C)=O)n2)c(OC)cc1N1CCC(N2CCOCC2)CC1` [Example 70, N-(5-((5-chloro-4-((2-(dimethylphosphoryl)phenyl)amino)pyrimidin-2-yl)amino)-4-methoxy-2-(4-morpholinopiperidin-1-yl)phenyl)acrylamide] yielded an IC50 [1] of under 50 nM, an IC50 [2] of under 50 nM and an IC50 [3] of under 50 nM. The GI50 [4] was under 50 nM, the GI50 [5] was under 50 nM and the IC50 [6] was at least 250 nM.
`C=CC(=O)Nc1cc(Nc2ncc(Cl)c(Nc3ccccc3P(C)(C)=O)n2)c(OC)cc1N1CCC(N2CCCN(C)CC2)CC1` [Example 71, N-(5-((5-chloro-4-((2-(dimethylphosphoryl)phenyl)amino)pyrimidin-2-yl)amino)-4-methoxy-2-(4-(4-methyl-1,4-diazepan-1-yl)piperidin-1-yl)phenyl)acrylamide] was tested, and the IC50 [1] was under 50 nM, the IC50 [2] was under 50 nM and the IC50 [3] was under 50 nM. The GI50 [4] was 50 to 100 nM, the GI50 [5] was 101 to 250 nM and the IC50 [6] was at least 250 nM.
With `C=CC(=O)Nc1cc(Nc2ncc(Cl)c(Nc3ccccc3P(C)(C)=O)n2)c(OC)cc1N1CCC(N2CCCC2)CC1` [Example 72, N-(5-((5-chloro-4-((2-(dimethylphosphoryl)phenyl)amino)pyrimidin-2-yl)amino)-4-methoxy-2-(4-(pyrrolidin-1-yl)piperidin-1-yl)phenyl)acrylamide] the IC50 [1] was 50 to 100 nM, the IC50 [2] was under 50 nM and the IC50 [3] was under 50 nM. It also gave a GI50 [4] of under 50 nM, a GI50 [5] of 101 to 250 nM and an IC50 [6] of at least 250 nM.
With `C=CC(=O)Nc1cc(Nc2ncc(Cl)c(Nc3ccccc3P(C)(C)=O)n2)c(OC)cc1C#CC1(N(C)C)CC1` [Example 73, N-(5-((5-chloro-4-((2-(dimethylphosphoryl)phenyl)amino)pyrimidin-2-yl)amino)-2-((1-(dimethylamino)cyclopropyl)ethynyl)-4-methoxyphenyl)acrylamide] the IC50 [1] was at least 250 nM, the IC50 [2] was under 50 nM and the IC50 [3] was under 50 nM. The GI50 [4] was 101 to 250 nM, the GI50 [5] was 101 to 250 nM and the IC50 [6] was at least 250 nM.
Compound `C=CC(=O)Nc1cc(Nc2ncc(Cl)c(Nc3ccccc3P(C)(C)=O)n2)c(OC)cc1CCN1CCN(C)CC1` [Example 74, N-(5-((5-chloro-4-((2-(dimethylphosphoryl)phenyl)amino)pyrimidin-2-yl)amino)-4-methoxy-2-(2-(4-methylpiperazin-1-yl)ethyl)phenyl)acrylamide] has an IC50 [1] of under 50 nM, an IC50 [2] of under 50 nM and an IC50 [3] of under 50 nM. The GI50 [4] was 101 to 250 nM, the GI50 [5] was at least 250 nM and the IC50 [6] was at least 250 nM.
